From patent publication US11077128B2, “Selective inhibitors of Alpha2-containing isoforms of Na,K-ATPase and use thereof for reduction of intraocular pressure” (Yeda Research and Development Co. Ltd., priority 2015, dated 2021)

Key:
[1] = tested on: human Na,K-ATPase α2β3FXYD1; assay: biochemical; type: biochemical
[2] = target: human Na,K-ATPase α2β1FXYD1 (Homo sapiens, UniProt P50993); assay: biochemical; type: biochemical
IOP in rabbits [3] = type: in vivo, New Zealand white rabbits; details: one drop topically prior to 4AP, IOP over 5 hours
IOP in rabbits [4] = assay: Lowering of basal IOP in rabbits, topical; type: in vivo, New Zealand white rabbits; details: for effect on lowering the basal IOP: one drop of 1 mM solution, other eye PBS
[5] = target: human Na,K-ATPase α2β3FXYD1 (Homo sapiens (Human), UniProt P50993); assay: biochemical; type: biochemical; details: read-out: apparent vanadate affinity (Ki vanadate) α2β3

For CC1CN(Cc2ccccc2)CCC(O[C@@H]2C(C)O[C@@H](OC3C(C)OC(O[C@H]4CC[C@@]5(C)C(CCC6C5CC(O)[C@]5(C)[C@@H](C7=CC(=O)OC7)CC[C@]65O)C4)C[C@@H]3O)C[C@@H]2O)O1 (stereo in doubt) [DBz, 4-((3S,5R,8R,9S,10S,12R,13S,14S,17R)-3-(((2S,4S,5R,6R)-5-(((2S,4S,5S,6R)-5-((4-benzyl-2-methyl-1,4-oxazepan-7-yl)oxy)-4-hydroxy-6-methyltetrahydro-2H-pyran-2-yl)oxy)-4-hydroxy-6-methyltetrahydro-2H-pyran-2-yl)oxy)-12,14-dihydroxy-10,13-dimethylhexadecahydro-1H-cyclopenta[a]phenanthren-17-yl)furan-2(5H)-one], the “Selectivity Ki ratio α1β1/α2β3” value [1] was 10-12 and the “Selectivity Ki ratio α1β1/α2β1” value [2] was 5.7.
In the case of CC1CN(CCS(N)(=O)=O)CCC(O[C@@H]2C(C)O[C@@H](OC3C(C)OC(O[C@H]4CC[C@@]5(C)C(CCC6C5CC(O)[C@]5(C)[C@@H](C7=CC(=O)OC7)CC[C@]65O)C4)C[C@@H]3O)C[C@@H]2O)O1 (stereo in doubt) [DESA, 2-(7-(((2R,3S,4S,6S)-6-(((2R,3R,4S,6S)-6-(((3S,5R,8R,9S,10S,12R,13S,14S,17R)-12,14-dihydroxy-10,13-dimethyl-17-(5-oxo-2,5-dihydrofuran-3-yl)hexadecahydro-1H-cyclopenta[a]phenanthren-3-yl)oxy)-4-hydroxy-2-methyltetrahydro-2H-pyran-3-yl)oxy)-4-hydroxy-2-methyltetrahydro-2H-pyran-3-yl)oxy)-2-methyl-1,4-oxazepan-4-yl)ethanesulfonamide], the “Selectivity Ki ratio α1β1/α2β3” value [1] is reported as 15 and the “Selectivity Ki ratio α1β1/α2β1” value [2] is reported as 7.7.
In the case of CC1CN(CC2CC(C)(C)C2)CCC(O[C@@H]2C(C)O[C@@H](OC3C(C)OC(O[C@H]4CC[C@@]5(C)C(CCC6C5CC(O)[C@]5(C)[C@@H](C7=CC(=O)OC7)CC[C@]65O)C4)C[C@@H]3O)C[C@@H]2O)O1 (stereo in doubt) [DMDMcB, 4-((3S,5R,8R,9S,10S,12R,13S,14S,17R)-3-(((2S,4S,5R,6R)-5-(((2S,4S,5 S,6R)-5-((4-((3,3-dimethylcyclobutyl)methyl)-2-methyl-1,4-oxazepan-7-yl)oxy)-4-hydroxy-6-methyltetrahydro-2H-pyran-2-yl)oxy)-4-hydroxy-6-methyltetrahydro-2H-pyran-2-yl)oxy)-12,14-dihydroxy-10,13-dimethylhexadecahydro-1H-cyclopenta[a]phenanthren-17-yl)furan-2(5H)-one], the “Selectivity Ki ratio α1β1/α2β3” value [1] is reported as 10-12.
In the case of CC1CN(CC2CC2)CCC(O[C@@H]2C(C)O[C@@H](O[C@@H]3C(C)O[C@@H](O[C@H]4CC[C@@]5(C)C(CCC6C5CC(O)[C@]5(C)[C@@H](C7=CC(=O)OC7)CC[C@]65O)C4)C[C@@H]3O)C[C@@H]2O)O1 (stereo in doubt) [DMcP, 4-((3S,5R,8R,9S,10S,12R,13S,14S,17R)-3-(((2R,4S,5S,6R)-5-(((2S,4S,5S,6R)-5-((4-(cyclopropylmethyl)-2-methyl-1,4-oxazepan-7-yl)oxy)-4-hydroxy-6-methyltetrahydro-2H-pyran-2-yl)oxy)-4-hydroxy-6-methyltetrahydro-2H-pyran-2-yl)oxy)-12,14-dihydroxy-10,13-dimethylhexadecahydro-1H-cyclopenta[a]phenanthren-17-yl)furan-2(5H)-one], the “Selectivity Ki ratio α1β1/α2β3” value [1] is reported as 22, the “concentration that prevents the rise of the 4AP-induced IOP” value (IOP in rabbits [3]) is reported as 0.01 mM and the “Selectivity Ki ratio α1β1/α2β1” value [2] is reported as 5.2.
With CC1CN(C2CCC2)CCC(O[C@@H]2C(C)O[C@@H](O[C@@H]3C(C)O[C@@H](O[C@H]4CC[C@@]5(C)C(CCC6C5CC(O)[C@]5(C)[C@@H](C7=CC(=O)OC7)CC[C@]65O)C4)C[C@@H]3O)C[C@@H]2O)O1 (stereo in doubt) [DcB, 4-((3S,5R,8R,9S,10S,12R,13S,14S,17R)-3-(((2R,4S,5S,6R)-5-(((2S,4S,5S,6R)-5-((4-cyclobutyl-2-methyl-1,4-oxazepan-7-yl)oxy)-4-hydroxy-6-methyltetrahydro-2H-pyran-2-yl)oxy)-4-hydroxy-6-methyltetrahydro-2H-pyran-2-yl)oxy)-12,14-dihydroxy-10,13-dimethylhexadecahydro-1H-cyclopenta[a]phenanthren-17-yl)furan-2(5H)-one] the “Selectivity Ki ratio α1β1/α2β3” value [1] was 33, the “concentration that prevents the rise of the 4AP-induced IOP” value (IOP in rabbits [3]) was 0.01 mM and the “reduction of basal IOP at higher concentration” value (IOP in rabbits [4]; 2 mM) was “reduces the IOP similarly to 1 mM DcB”.
In the case of CC1CN(C2CCCCC2)CCC(O[C@@H]2C(C)O[C@@H](OC3C(C)OC(O[C@H]4CC[C@@]5(C)C(CCC6C5CC(O)[C@]5(C)[C@@H](C7=CC(=O)OC7)CC[C@]65O)C4)C[C@@H]3O)C[C@@H]2O)O1 (stereo in doubt) [DcH, 4-((3S,5R,8R,9S,10S,12R,13S,14S,17R)-3-(((2S,4S,5R,6R)-5-(((2S,4S,5S,6R)-5-((4-cyclohexyl-2-methyl-1,4-oxazepan-7-yl)oxy)-4-hydroxy-6-methyltetrahydro-2H-pyran-2-yl)oxy)-4-hydroxy-6-methyltetrahydro-2H-pyran-2-yl)oxy)-12,14-dihydroxy-10,13-dimethylhexadecahydro-1H-cyclopenta[a]phenanthren-17-yl)furan-2(5H)-one], the “Selectivity Ki ratio α1β1/α2β3” value [1] is reported as 10-12.
In the case of CC1CN(C2CCCC2)CCC(O[C@@H]2C(C)O[C@@H](OC3C(C)OC(O[C@H]4CC[C@@]5(C)C(CCC6C5CC(O)[C@]5(C)[C@@H](C7=CC(=O)OC7)CC[C@]65O)C4)C[C@@H]3O)C[C@@H]2O)O1 (stereo in doubt) [DcPe, 4-((3S,5R,8R,9S,10S,12R,13S,14S,17R)-3-(((2S,4S,5R,6R)-5-(((2S,4S,5S,6R)-5-((4-cyclopentyl-2-methyl-1,4-oxazepan-7-yl)oxy)-4-hydroxy-6-methyltetrahydro-2H-pyran-2-yl)oxy)-4-hydroxy-6-methyltetrahydro-2H-pyran-2-yl)oxy)-12,14-dihydroxy-10,13-dimethylhexadecahydro-1H-cyclopenta[a]phenanthren-17-yl)furan-2(5H)-one], the “Selectivity Ki ratio α1β1/α2β3” value [1] is reported as 5.
In the case of CC1CN(CC(F)(F)F)CCC(O[C@@H]2[C@H](C)O[C@@H](O[C@@H]3[C@H](C)O[C@@H](O[C@H]4CC[C@@]5(C)C(CCC6C5C[C@H](O)[C@]5(C)[C@@H](C7=CC(=O)OC7)CC[C@]65O)C4)C[C@@H]3O)C[C@@H]2O)O1 (stereo partly shown) [DCF3], the “Selectivity Ki ratio α1β1/α2β3” value [1] is reported as 9.6 and the “Selectivity Ki ratio α1β1/α2β1” value [2] is reported as 4.1.
In the case of CCN1CCC(O[C@@H]2[C@H](C)O[C@@H](O[C@@H]3[C@H](C)O[C@@H](O[C@H]4CC[C@@]5(C)C(CCC6C5C[C@H](O)[C@]5(C)[C@@H](C7=CC(=O)OC7)CC[C@]65O)C4)C[C@@H]3O)C[C@@H]2O)OC(C)C1 (stereo partly shown) [DEt], the “Selectivity Ki ratio α1β1/α2β3” value [1] is reported as 9.5 and the “Selectivity Ki ratio α1β1/α2β1” value [2] is reported as 5.9.
CC1CN(CC(N)=O)CCC(OC2C(O)CC(OC3C(O)CC(OC4CCC5(C)C(CCC6C5CC(O)C5(C)C(C7=CC(=O)OC7)CCC65O)C4)OC3C)OC2C)O1 (stereo not shown) [DGlyN, reference compound] was tested, and the “effect on lowering the basal IOP” value (IOP in rabbits [4]) was “coincides with other observations”.
With CC1CN(C)CCC(O[C@@H]2[C@H](C)O[C@@H](O[C@@H]3[C@H](C)O[C@@H](O[C@H]4CC[C@@]5(C)C(CCC6C5C[C@H](O)[C@]5(C)[C@@H](C7=CC(=O)OC7)CC[C@]65O)C4)C[C@@H]3O)C[C@@H]2O)O1 (stereo partly shown) [DMe] the “Selectivity Ki ratio α1β1/α2β3” value [1] was 9.5, the “effect on lowering the basal IOP” value (IOP in rabbits [4]) was “coincides with other observations” and the “Selectivity Ki ratio α1β1/α2β1” value [2] was 6.7.
With CCCN1CCC(O[C@@H]2[C@H](C)O[C@@H](O[C@@H]3[C@H](C)O[C@@H](O[C@H]4CC[C@@]5(C)C(CCC6C5C[C@H](O)[C@]5(C)[C@@H](C7=CC(=O)OC7)CC[C@]65O)C4)C[C@@H]3O)C[C@@H]2O)OC(C)C1 (stereo partly shown) [DP] the “Selectivity Ki ratio α1β1/α2β3” value [1] was 8.8 and the “Selectivity Ki ratio α1β1/α2β1” value [2] was 4.8.
In the case of CC1CN(C[Si](C)(C)C)CCC(OC2C(O)CC(OC3C(O)CC(OC4CCC5(C)C(CCC6C5CC(O)C5(C)C(C7=CC(=O)OC7)CCC65O)C4)OC3C)OC2C)O1 (stereo not shown) [DTMS], the “Selectivity Ki ratio α1β1/α2β3” value [1] is reported as 6.5 and the “Selectivity Ki ratio α1β1/α2β1” value [2] is reported as 3.
With C[C@H]1O[C@@H](O[C@H]2[C@@H](O)C[C@H](O[C@H]3[C@@H](O)C[C@H](O[C@H]4CC[C@@]5(C)[C@H](CC[C@@H]6[C@@H]5C[C@@H](O)[C@]5(C)[C@@H](C7=CC(=O)OC7)CC[C@]65O)C4)O[C@@H]3C)O[C@@H]2C)C[C@H](O)[C@@H]1O [Digoxin, digoxin, reference compound] the “effect on lowering the basal IOP” value (IOP in rabbits [4]) was “neither digoxin nor DiB had a significant effect”.
With CC1CN(C(C)(C)C)CCC(O[C@@H]2[C@H](C)O[C@@H](O[C@@H]3[C@H](C)O[C@@H](O[C@H]4CC[C@@]5(C)C(CCC6C5C[C@H](O)[C@]5(C)[C@@H](C7=CC(=O)OC7)CC[C@]65O)C4)C[C@@H]3O)C[C@@H]2O)O1 (stereo partly shown) [DtB] the “Selectivity Ki ratio α1β1/α2β3” value [1] was 8.2 and the “Selectivity Ki ratio α1β1/α2β1” value [2] was 6.2.
In the case of CC(=O)O[C@H]1C[C@H](O[C@H]2[C@@H](OC(C)=O)C[C@H](O[C@H]3CC[C@@]4(C)[C@H](CC[C@@H]5[C@@H]4C[C@@H](OC(C)=O)[C@]4(C)[C@@H](C6=CC(=O)OC6)CC[C@]54O)C3)O[C@@H]2C)O[C@H](C)[C@H]1OC1CCN(C2CCC2)CC(C)O1 (stereo partly drawn) [TrisAcDcB, (2R,3R,4S,6R)-6-(((3S,5R,8R,9S,10S,12R,13S,14S,17R)-12-acetoxy-14-hydroxy-10,13-dimethyl-17-(5-oxo-2,5-dihydrofuran-3-yl)hexadecahydro-1H-cyclopenta[a]phenanthren-3-yl)oxy)-3-(((2S,4S,5R,6R)-4-acetoxy-5-((4-cyclobutyl-2-methyl-1,4-oxazepan-7-yl)oxy)-6-methyltetrahydro-2H-pyran-2-yl)oxy)-2-methyltetrahydro-2H-pyran-4-yl acetate], the “time to minimum IOP” value (IOP in rabbits [4]; 0.05-0.2 mM) is reported as 5 to 6 h, the “minimum IOP” value (IOP in rabbits [4]; dropped from 15-16 mmHg, 0.05-0.2 mM) is reported as 12 mmHg and the “effect on basal IOP in the first hours (lag)” value (IOP in rabbits [4]; one 30 μl drop, 0.05, 0.1, 0.2 mM) is reported as “no effect was observed at the first four hours”. For the same compound, the “time of return of IOP to the control level” value (IOP in rabbits [4]; prodrug, 0.05-0.2 mM) was 12 h and the “maximal effect on IOP compared with parent DcB” value (IOP in rabbits [4]; rabbit, in vivo) was “essentially equal to that produced by the parent DcB”.
Work on [O]=[V]([OH])([OH])[OH] [vanadate, reference compound] yielded a Ki [5] of 19 µM.
